Patent publication US9902735B2, “Heteroaryl substituted compounds as RORγ inhibitors” (GlaxoSmithKline Intellectual Property Developement Limited, priority 2014, dated 2018)

What was measured:
[1] = biological target: T1, Human RORγ Ligand Binding Domain (RORγ-LBD) (Homo sapiens, UniProt P51449); test: Dual Fluorescence Energy Transfer (FRET) assay; type: biochemical; conditions: mean of multiple test results if tested more than once; read-out: pIC50 in the dual FRET assay (converted)
T1 construct: made in house; host or cells: E. coli BL21(DE3)
T1 sequence (P51449 263-518): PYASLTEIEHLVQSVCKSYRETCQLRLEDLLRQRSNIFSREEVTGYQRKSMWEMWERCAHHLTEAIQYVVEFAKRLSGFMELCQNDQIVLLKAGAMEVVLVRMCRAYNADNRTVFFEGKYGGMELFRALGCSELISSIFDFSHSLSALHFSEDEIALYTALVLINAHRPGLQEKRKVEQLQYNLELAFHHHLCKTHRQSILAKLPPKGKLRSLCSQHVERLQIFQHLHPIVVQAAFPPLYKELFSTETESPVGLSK
Text: This assay is based on the knowledge that nuclear receptors interact with cofactors (transcription factors) in a ligand dependent manner. RORγ is a typical nuclear receptor in that it has an AF2 domain in the ligand binding domain (LBD) which interacts with co-activators. The sites of interaction have been mapped to the LXXLL motifs in the co-activator SRC1(2) sequences. Short peptide sequences containing the LXXLL motif mimic the behavior of full-length co-activator.
The assay measures ligand-mediated interaction of the co-activator peptide with the purified bacterial-expressed RORγ ligand binding domain (RORγ-LBD) to indirectly assess ligand binding. RORγ has a basal level of interaction with the co-activator SRC1(2) in the absence of ligand, thus it is possible to find ligands that inhibit or enhance the RORγ/SRC1(2) interaction.
Human RORγ Ligand Binding Domain (RORγ-LBD) was expressed in E. coli strain BL21(DE3) as an amino-terminal polyhistidine tagged fusion protein. DNA encoding this recombinant protein was sub-cloned into a modified pET21a expression vector (Novagen). […]
Approximately 50 g E. coli cell pellet was resuspended in 300 mL of lysis buffer (30 mM imidazole pH 7.0 and 150 mM NaCl). […] After washing to baseline absorbance with the equilibration buffer, the column was developed with a gradient from 30 to 500 mM imidazole pH 7.0. […]

Mouse CD4+ cells = test: Th17 cell differentiation assay (IL-17 ELISA); type: cell-based; conditions: mean of multiple test results if tested more than once, read-out: pIC50 in the Th17 cell differentiation assay (converted)
Method: Mouse CD4+ cells were purified using the CD4+ T Cell Isolation II Kit according to manufacturer's instructions (Miltenyi Biotec). 96 well plates were pre-coated with anti-mCD3 antibody. Un-coated wells were used as controls. CD4+ Cells were resuspended in RPMI 1640 complete medium and were added to the 96-well plates. Cytokine cocktail and the compound were then added to the wells. Antibodies and cytokines (all from R&D Systems) used in the assay were selected from the following: anti-mCD3; anti-mCD28; anti-mIFNγ; anti-mIL4; mIL-6; mIL-23; mIL-1β; hTGF-β1. The culture was incubated at 37° C. for 3 days and supernatants were collected for ELISA. The IL-17 ELISAs were performed according to manufacturer's instructions (R&D Systems). The results were analyzed using Prism software with non-linear regression to determine pIC50.
The Th17 differentiation culture described above was maintained for 5 days and cells were analyzed by IL-17 and IFN-γ intracellular staining according to manufacturer's instructions (BD Biosciences).

IC50 [1]: ~0.1 µM | IC50 (Mouse CD4+ cells): ~0.00501 µM
Compound: Cc1ncc(C(=O)Nc2cc(Cl)cc(CN3CCN(C(=O)CC4CC4)[C@@H](C)C3)c2C)cc1F [Example 80, (S)—N-(5-chloro-3-((4-(2-cyclopropylacetyl)-3-methylpiperazin-1-yl)methyl)-2-methylphenyl)-5-fluoro-6-methylnicotinamide]
